ChEMBL document CHEMBL4043254, “Discovery of potential antiausterity agents from the Japanese cypress Chamaecyparis obtusa” (2017)
The source made the active and inactive calls. The calls are words filed in the database; no cut-off is given here.

Legend:
[1] = tested on: MIA PaCa-2; assay: Antiausteritic activity against human MIAPaCa2 cells in nutrient-deprived medium measured after 24 hrs by WST8 assay; assay type: functional
[2] = tested on: PSN1; assay: Antiausteritic activity against human PSN1 cells in nutrient-deprived medium measured after 24 hrs by WST8 assay; assay type: functional
[3] = Antiausteritic activity against human KLM1 cells in nutrient-deprived medium measured after 24 hrs by WST8 assay; assay type: functional
[4] = tested on: PANC-1; assay: Antiausteritic activity against human PANC1 cells in nutrient-deprived medium measured after 24 hrs by WST8 assay; assay type: functional
[5] = tested on: CAPAN-1; assay: Antiausteritic activity against human Capan1 cells in nutrient-deprived medium measured after 24 hrs by WST8 assay; assay type: functional
[6] = tested on: PANC-1; assay: Antiausteritic activity against human PANC1 cells assessed as normalized cell index by measuring cell growth inhibition at 25 uM under nutrient-deprived medium measured at 15 secs interval for 24 hrs by real time cell analysis; assay type: functional, cell-based
[7] = target: RAC-alpha serine/threonine-protein kinase (Homo sapiens) (UniProt P31749); assay: Inhibition of AKT phosphorylation at Ser473 residues in human PANC1 cells at 50 uM measured within 3 hrs under nutrient deprived condition by Western blot analysis; assay type: cell-based
[8] = target: RAC-alpha serine/threonine-protein kinase (Homo sapiens) (UniProt P31749); assay: Inhibition of AKT in human PANC1 cells assessed as reduction in mTOR phosphorylation at Ser2448 residue at 50 uM measured after 3 hrs under nutrient deprived condition by Western blot analysis; assay type: cell-based
[9] = tested on: PANC-1; assay: Antiausteritic activity against human PANC1 cells assessed as cell death at 50 uM under nutrient-deprived medium measured at 5 mins interval for 8 hrs by live cell imaging analysis; assay type: functional, cell-based
[10] = tested on: PANC-1; assay: Antiausteritic activity against human PANC1 cells assessed as decrease in cell index by measuring cell death at 50 uM under nutrient-deprived medium measured at 15 secs interval for 4 hrs by real time cell analysis; assay type: functional, cell-based
[11] = tested on: PANC-1; assay: Antiausteritic activity against human PANC1 cells assessed as decrease in cell index under nutrient-deprived medium measured at 15 secs interval for 24 hrs by real time cell analysis; assay type: functional, cell-based
[12] = tested on: PANC-1; assay: Induction of morphological changes in human PANC1 cells assessed as increase in dead cells after 24 hrs by ethidium bromide/acridine orange staining based inverted microscopic analysis; assay type: functional, cell-based
[13] = tested on: PANC-1; assay: Induction of morphological changes in human PANC1 cells assessed as nuclear fragmentation at 25 to 50 uM after 24 hrs by Hoechst 33342/propidium iodide staining based inverted microscopic analysis; assay type: functional, cell-based
[14] = tested on: PANC-1; assay: Antiausteritic activity against human PANC1 cells assessed as reduction in cell migration at 50 uM under nutrient-deprived medium measured at 5 mins interval for 30 mins by live cell imaging analysis; assay type: functional, cell-based
[15] = tested on: PANC-1; assay: Induction of autophagy in human PANC1 cells assessed as increase in LC3-1 expression after 3 hrs under nutrient deprived medium by Western blot analysis; assay type: functional, cell-based
[16] = tested on: PANC-1; assay: Antiausteritic activity against human PANC1 cells assessed as alterations in cell morphology at 50 uM under nutrient-deprived medium measured at 5 mins interval for 2 hrs by live cell imaging analysis; assay type: functional, cell-based
[17] = tested on: PANC-1; assay: Induction of morphological changes in human PANC1 cells assessed as increase in dead cells after 24 hrs by Hoechst 33342/propidium iodide staining based inverted microscopic analysis; assay type: functional, cell-based
[18] = target: RAC-alpha serine/threonine-protein kinase (Homo sapiens) (UniProt P31749); assay: Inhibition of AKT in human PANC1 cells assessed as reduction in mTOR phosphorylation at Ser2448 residue measured after 3 hrs under nutrient deprived condition by Western blot analysis; assay type: cell-based
[19] = tested on: PANC-1; assay: Induction of autophagy in human PANC1 cells assessed as increase in LC3-2 expression after 3 hrs under nutrient deprived medium by Western blot analysis; assay type: functional, cell-based

Sequence of RAC-alpha serine/threonine-protein kinase (Homo sapiens) (P31749 whole entry): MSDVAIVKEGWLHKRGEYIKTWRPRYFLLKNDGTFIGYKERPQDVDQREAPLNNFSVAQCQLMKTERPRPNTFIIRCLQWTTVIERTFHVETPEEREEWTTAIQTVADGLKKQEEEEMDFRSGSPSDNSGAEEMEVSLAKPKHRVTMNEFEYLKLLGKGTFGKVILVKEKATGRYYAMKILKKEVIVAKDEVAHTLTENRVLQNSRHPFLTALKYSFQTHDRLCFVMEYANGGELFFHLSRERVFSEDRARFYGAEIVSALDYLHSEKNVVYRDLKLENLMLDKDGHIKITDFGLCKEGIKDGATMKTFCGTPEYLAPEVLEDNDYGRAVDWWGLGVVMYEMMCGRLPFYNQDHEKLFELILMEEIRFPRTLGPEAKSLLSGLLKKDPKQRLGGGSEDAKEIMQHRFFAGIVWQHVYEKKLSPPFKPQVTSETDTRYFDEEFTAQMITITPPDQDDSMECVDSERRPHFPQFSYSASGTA

Q: With CC1=C[C@@H]2[C@@H](CC1)[C@](C)(O)CC[C@H]2C(C)C as the compound, how does the PC50 [1] read?
A: 49.1 µM

Q: And the PC50 [2]?
A: >100 µM

Q: And the PC50 [3]?
A: 69.7 µM

Q: And the PC50 [4]?
A: 46 µM

Q: And the PC50 [5]?
A: >100 µM

Q: What does the source list for CC(=O)OCC1=C[C@@H]2[C@@H](CC1)[C@@](C)(O)CC[C@H]2C(C)C?
A: PC50 [1]: 35.7 µM; PC50 [2]: >100 µM; PC50 [3]: 69 µM; PC50 [5]: >100 µM

Q: What does the source list for COc1cc(C[C@H]2C(=O)OC[C@@H]2Cc2ccc(OC)c(OC)c2)ccc1O [ARCTIGENIN]?
A: PC50 [1]: 1.9 µM; PC50 [2]: 0.7 µM; PC50 [3]: 0.8 µM; PC50 [4]: 0.5 µM; PC50 [5]: 1.2 µM

Q: For CC1=C[C@@H]2[C@@H](CC1=O)[C@@](C)(O)CC[C@H]2C(C)C, which PC50 [1] is on record?
A: >100 µM

Q: What about the PC50 [2] of the same compound?
A: >100 µM

Q: What about the PC50 [3] of the same compound?
A: >100 µM

Q: What about the PC50 [4] of the same compound?
A: >100 µM

Q: What about the PC50 [5] of the same compound?
A: >100 µM

Q: Which PC50 [1] does the source give for O=C1OC[C@H](Cc2ccc3c(c2)OCO3)[C@H]1Cc1ccc2c(c1)OCO2 [HINOKININ] here?
A: 21.3 µM

Q: And the PC50 [2]?
A: 60.1 µM

Q: What about the PC50 [3] of the same compound?
A: 92.5 µM

Q: And the PC50 [4]?
A: 64.1 µM

Q: What about the PC50 [5] of the same compound?
A: 50.1 µM

Q: For C/C1=C/C(=O)CC[C@@](C)(O)CC[C@@H](C(C)C)C1=O, which PC50 [1] is on record?
A: >100 µM

Q: And the PC50 [2]?
A: 67.7 µM

Q: And the PC50 [3]?
A: 98.1 µM

Q: What about the PC50 [4] of the same compound?
A: >100 µM

Q: What about the PC50 [5] of the same compound?
A: >100 µM

Q: For CC1=C[C@@H]2[C@@H](CC1)[C@@](C)(O)CC[C@H]2C(C)C [T-CADINOL], which Activity [6] is on record?
A: Active

Q: What about the inhibition [7] of the same compound?
A: Active

Q: And the PC50 [3]?
A: 45.1 µM

Q: And the inhibition [8]?
A: 100%

Q: And the Activity [9]?
A: Active

Q: And the Activity [10]?
A: Active

Q: And the Activity [11]?
A: Dose-dependent effect

Q: What about the Activity [12] of the same compound?
A: Dose-dependent effect

Q: What about the Activity [13] of the same compound?
A: Active

Q: And the Activity [14]?
A: Active

Q: What about the Activity [15] of the same compound?
A: Dose-dependent effect

Q: What about the Activity [16] of the same compound?
A: Active

Q: And the Activity [17]?
A: Dose-dependent effect

Q: And the inhibition [18]?
A: Dose-dependent effect

Q: What about the Activity [19] of the same compound?
A: Dose-dependent effect

Q: For CC(C)[C@@H]1CC[C@](C)(O)[C@@H]2CCC(CO)=C[C@H]21, which PC50 [1] is on record?
A: 29.8 µM

Q: And the PC50 [2]?
A: 50.6 µM

Q: And the PC50 [3]?
A: 77.2 µM

Q: What about the PC50 [4] of the same compound?
A: 82.1 µM

Q: And the PC50 [5]?
A: >100 µM

Q: What does the source list for CC(C)[C@@H]1CC[C@@](C)(O)[C@@H]2CCC(CO)=C[C@H]21?
A: PC50 [1]: >100 µM; PC50 [2]: >100 µM; PC50 [3]: 95.3 µM; PC50 [4]: >100 µM; PC50 [5]: >100 µM
